Test results reported in the NIST ThermoML archive (doi:10.1016/j.fluid.2009.02.001).
Values joined by “and” are separate entries in the source; they are usually repeats but may differ in a detail not shown here. Equal values may be shown once. ± gives the expanded uncertainty stated by the source.

Experiments:
[1] = Molar enthalpy of transition or fusion; conditions: Crystal; DSC
[2] = for vapor or sublimation pressure: Liquid

CC(=O)Nc1ccc(Br)cc1 [N-(4-bromophenyl)acetamide]
Conditions	Molar enthalpy of transition or fusion [kcal/mol]
[1]	6.21 ± 0.478

vapor or sublimation pressure, [2]
Conditions	Isothermal thermogravimetry	Nonisothermal thermogravimetry
444.2 K	–	0.304 ± 0.041 kPa
446.2 K	0.384 ± 0.039 kPa and 0.382 ± 0.039 kPa	–
446.3 K	0.353 ± 0.046 kPa	–
446.4 K	–	0.366 ± 0.043 kPa
447.1 K	0.381 ± 0.053 kPa	–
447.7 K	0.394 ± 0.044 kPa	–
448.2 K	0.422 ± 0.045 kPa	–
448.4 K	–	0.398 ± 0.045 kPa
449.4 K	0.415 ± 0.042 kPa	–
449.9 K	0.443 ± 0.045 kPa	–
450.2 K	0.453 ± 0.046 kPa	0.443 ± 0.065 kPa
451.3 K	0.447 ± 0.051 kPa	–
452.1 K	0.489 ± 0.054 kPa	–
452.2 K	0.496 ± 0.055 kPa	–
452.3 K	–	0.579 ± 0.072 kPa
453.4 K	0.528 ± 0.054 kPa	–
453.6 K	0.494 ± 0.052 kPa	–
454.2 K	0.539 ± 0.056 kPa	–
454.4 K	–	0.621 ± 0.063 kPa
455.3 K	0.54 ± 0.058 kPa	–
455.9 K	0.584 ± 0.062 kPa	–
456.3 K	0.606 ± 0.064 kPa	–
456.4 K	–	0.611 ± 0.065 kPa
457.6 K	0.605 ± 0.064 kPa	–
457.8 K	0.634 ± 0.067 kPa	–
458.2 K	0.65 ± 0.068 kPa	–
458.3 K	–	0.712 ± 0.085 kPa
459.3 K	0.67 ± 0.071 kPa	–
459.5 K	0.693 ± 0.073 kPa	–
460.2 K	0.732 ± 0.077 kPa	–
460.3 K	–	0.793 ± 0.09 kPa
461.5 K	0.724 ± 0.075 kPa	–
462 K	0.777 ± 0.08 kPa	–
462.2 K	0.793 ± 0.082 kPa	0.882 ± 0.097 kPa
463.5 K	0.793 ± 0.082 kPa	–
463.6 K	0.84 ± 0.086 kPa	–
464.2 K	0.862 ± 0.092 kPa	–
464.3 K	–	0.953 ± 0.1 kPa
465.2 K	0.855 ± 0.089 kPa	–
465.9 K	0.911 ± 0.094 kPa	–
466.1 K	0.943 ± 0.1 kPa	–
466.2 K	–	0.998 ± 0.11 kPa
467.1 K	0.927 ± 0.1 kPa	–
468.2 K	1.011 ± 0.12 kPa	–
468.3 K	1.006 ± 0.11 kPa	1.147 ± 0.12 kPa
469.2 K	1.005 ± 0.11 kPa	–
470.2 K	1.098 ± 0.12 kPa and 1.075 ± 0.12 kPa	–
470.3 K	–	1.074 ± 0.12 kPa
471.1 K	1.086 ± 0.12 kPa	–
472.1 K	1.208 ± 0.12 kPa	–
472.2 K	–	1.398 ± 0.17 kPa
472.4 K	1.175 ± 0.14 kPa	–
473.2 K	1.17 ± 0.12 kPa	–
474.1 K	1.285 ± 0.13 kPa	–
474.3 K	–	1.482 ± 0.15 kPa
475.3 K	1.239 ± 0.13 kPa	–
476.2 K	1.381 ± 0.14 kPa	1.497 ± 0.17 kPa
478.3 K	–	1.779 ± 0.19 kPa
480.2 K	–	1.749 ± 0.18 kPa
482.3 K	–	1.937 ± 0.22 kPa
484.3 K	–	2.151 ± 0.23 kPa
486.2 K	–	2.296 ± 0.24 kPa
488.3 K	–	2.466 ± 0.27 kPa
490.2 K	–	2.741 ± 0.29 kPa
492.2 K	–	2.83 ± 0.3 kPa
494.3 K	–	3.134 ± 0.34 kPa
496.2 K	–	3.347 ± 0.35 kPa
498.3 K	–	3.604 ± 0.38 kPa
500.3 K	–	3.812 ± 0.41 kPa
502.2 K	–	4.149 ± 0.44 kPa
504.3 K	–	4.419 ± 0.46 kPa
506.2 K	–	4.593 ± 0.48 kPa
508.2 K	–	4.944 ± 0.53 kPa
510.2 K	–	5.307 ± 0.55 kPa
512.2 K	–	5.584 ± 0.57 kPa
514.4 K	–	5.847 ± 0.61 kPa
516.2 K	–	6.243 ± 0.66 kPa

CCOc1ccc(NC(C)=O)cc1 [N-(4-ethoxyphenyl)ethanamide]
Conditions	Molar enthalpy of transition or fusion [kcal/mol]
[1]	7.17 ± 0.478

[2]
Conditions	Normal melting temperature [°C]	vapor or sublimation pressure
418.2 K, Nonisothermal thermogravimetry	–	0.088 ± 0.009 kPa
420.2 K, Nonisothermal thermogravimetry	–	0.087 ± 0.009 kPa
422.2 K, Nonisothermal thermogravimetry	–	0.102 ± 0.011 kPa
424.3 K, Nonisothermal thermogravimetry	–	0.106 ± 0.015 kPa
426.2 K, Nonisothermal thermogravimetry	–	0.146 ± 0.018 kPa
428.2 K, Nonisothermal thermogravimetry	–	0.146 ± 0.015 kPa
430.3 K, Nonisothermal thermogravimetry	–	0.162 ± 0.017 kPa
432.3 K, Nonisothermal thermogravimetry	–	0.171 ± 0.019 kPa
434.3 K, Nonisothermal thermogravimetry	–	0.199 ± 0.024 kPa
438.2 K, Nonisothermal thermogravimetry	–	0.247 ± 0.027 kPa
440.2 K, Nonisothermal thermogravimetry	–	0.259 ± 0.03 kPa
442.2 K, Nonisothermal thermogravimetry	–	0.309 ± 0.036 kPa
444.2 K, Nonisothermal thermogravimetry	–	0.329 ± 0.04 kPa
446.2 K, Nonisothermal thermogravimetry	–	0.401 ± 0.043 kPa
448.2 K, Nonisothermal thermogravimetry	–	0.396 ± 0.042 kPa
450.2 K, Nonisothermal thermogravimetry	–	0.452 ± 0.05 kPa
452.2 K, Nonisothermal thermogravimetry	–	0.479 ± 0.053 kPa
454.2 K, Nonisothermal thermogravimetry	–	0.538 ± 0.06 kPa
456.3 K, Nonisothermal thermogravimetry	–	0.589 ± 0.064 kPa
458.2 K, Nonisothermal thermogravimetry	–	0.643 ± 0.071 kPa
460.2 K, Nonisothermal thermogravimetry	–	0.707 ± 0.079 kPa
460.3 K, Isothermal thermogravimetry	–	0.821 ± 0.082 kPa
461.1 K, Isothermal thermogravimetry	–	0.829 ± 0.1 kPa
461.9 K, Isothermal thermogravimetry	–	0.815 ± 0.093 kPa
462.2 K, Isothermal thermogravimetry	–	0.899 ± 0.11 kPa
462.2 K, Nonisothermal thermogravimetry	–	0.785 ± 0.085 kPa
463.3 K, Isothermal thermogravimetry	–	0.958 ± 0.11 kPa
464.1 K, Isothermal thermogravimetry	–	0.935 ± 0.1 kPa
464.3 K, Isothermal thermogravimetry	–	0.96 ± 0.11 kPa
464.3 K, Nonisothermal thermogravimetry	–	0.84 ± 0.092 kPa
465.5 K, Isothermal thermogravimetry	–	1.054 ± 0.12 kPa
466.2 K, Isothermal thermogravimetry	–	1.028 ± 0.11 kPa and 1.087 ± 0.12 kPa
466.3 K, Nonisothermal thermogravimetry	–	0.936 ± 0.11 kPa
467.4 K, Isothermal thermogravimetry	–	1.116 ± 0.12 kPa
468.1 K, Isothermal thermogravimetry	–	1.149 ± 0.12 kPa
468.2 K, Nonisothermal thermogravimetry	–	1.057 ± 0.12 kPa
468.3 K, Isothermal thermogravimetry	–	1.165 ± 0.12 kPa
469.3 K, Isothermal thermogravimetry	–	1.242 ± 0.13 kPa
470 K, Isothermal thermogravimetry	–	1.259 ± 0.13 kPa
470.2 K, Nonisothermal thermogravimetry	–	1.11 ± 0.12 kPa
470.3 K, Isothermal thermogravimetry	–	1.273 ± 0.14 kPa
471 K, Isothermal thermogravimetry	–	1.26 ± 0.13 kPa
471.8 K, Isothermal thermogravimetry	–	1.327 ± 0.14 kPa
472.2 K, Isothermal thermogravimetry	–	1.381 ± 0.15 kPa
472.2 K, Nonisothermal thermogravimetry	–	1.192 ± 0.13 kPa
473.3 K, Isothermal thermogravimetry	–	1.377 ± 0.15 kPa
474 K, Isothermal thermogravimetry	–	1.484 ± 0.16 kPa
474.2 K, Nonisothermal thermogravimetry	–	1.324 ± 0.14 kPa
474.3 K, Isothermal thermogravimetry	–	1.551 ± 0.17 kPa
475.4 K, Isothermal thermogravimetry	–	1.567 ± 0.16 kPa
476.1 K, Isothermal thermogravimetry	–	1.571 ± 0.16 kPa
476.2 K, Isothermal thermogravimetry	–	1.666 ± 0.17 kPa
476.2 K, Nonisothermal thermogravimetry	–	1.4 ± 0.15 kPa
477.6 K, Isothermal thermogravimetry	–	1.691 ± 0.17 kPa
478.3 K, Isothermal thermogravimetry	–	1.709 ± 0.17 kPa and 1.766 ± 0.18 kPa
478.3 K, Nonisothermal thermogravimetry	–	1.559 ± 0.17 kPa
479.1 K, Isothermal thermogravimetry	–	1.789 ± 0.2 kPa
479.8 K, Isothermal thermogravimetry	–	1.808 ± 0.2 kPa
480.2 K, Isothermal thermogravimetry	–	1.915 ± 0.21 kPa
480.2 K, Nonisothermal thermogravimetry	–	1.679 ± 0.18 kPa
481.2 K, Isothermal thermogravimetry	–	2.014 ± 0.23 kPa
482 K, Isothermal thermogravimetry	–	2.037 ± 0.22 kPa
482.3 K, Isothermal thermogravimetry	–	2.099 ± 0.22 kPa
482.3 K, Nonisothermal thermogravimetry	–	1.802 ± 0.19 kPa
483.3 K, Isothermal thermogravimetry	–	2.204 ± 0.25 kPa
484.1 K, Isothermal thermogravimetry	–	2.228 ± 0.24 kPa
484.3 K, Isothermal thermogravimetry	–	2.276 ± 0.25 kPa
484.3 K, Nonisothermal thermogravimetry	–	1.945 ± 0.21 kPa
485.3 K, Isothermal thermogravimetry	–	2.4 ± 0.28 kPa
486 K, Isothermal thermogravimetry	–	2.495 ± 0.28 kPa
486.2 K, Isothermal thermogravimetry	–	2.488 ± 0.28 kPa
486.2 K, Nonisothermal thermogravimetry	–	2.088 ± 0.22 kPa
487.1 K, Isothermal thermogravimetry	–	2.633 ± 0.28 kPa
487.8 K, Isothermal thermogravimetry	–	2.702 ± 0.3 kPa
488.2 K, Nonisothermal thermogravimetry	–	2.229 ± 0.24 kPa
488.3 K, Isothermal thermogravimetry	–	2.686 ± 0.3 kPa
489 K, Isothermal thermogravimetry	–	2.881 ± 0.3 kPa
489.8 K, Isothermal thermogravimetry	–	2.981 ± 0.34 kPa
490.2 K, Isothermal thermogravimetry	–	2.941 ± 0.3 kPa
490.3 K, Nonisothermal thermogravimetry	–	2.41 ± 0.25 kPa
491.1 K, Isothermal thermogravimetry	–	3.159 ± 0.34 kPa
492.3 K, Nonisothermal thermogravimetry	–	2.535 ± 0.27 kPa
494.3 K, Nonisothermal thermogravimetry	–	2.717 ± 0.29 kPa
496.2 K, Nonisothermal thermogravimetry	–	2.889 ± 0.3 kPa
498.2 K, Nonisothermal thermogravimetry	–	3.001 ± 0.32 kPa
500.3 K, Nonisothermal thermogravimetry	–	3.29 ± 0.33 kPa
502.3 K, Nonisothermal thermogravimetry	–	3.213 ± 0.32 kPa
Crystal, DTA	136.5 ± 0.5	–
